Laboratory results: US7385054B2, “Trimeric, macrocyclically substituted halo-benzene derivatives” (Schering AG, priority 2004, dated 2008)

Assays:
[1] = Osmolality of the solution at 200 mg (I + Gd)/ml; format: physicochemical; settings: prior-art compounds as Na-salt
Mouse = experiment: LD50 (Mouse), acute toxicity; format: in vivo
[2] = BuOH/H2O distribution coefficient; format: physicochemical; settings: butanol/water

| Structure (SMILES) | Osmolality 200 mg (I + Gd)/ml [1] | LD50 (Mouse) (Mouse) | BuOH/H2O Distribution Coefficient [2] |
| --- | --- | --- | --- |
| CC(C(=O)NCC(=O)NCCNC(=O)c1c(I)c(C(=O)NCCNC(=O)CNC(=O)C(C)N2CCN(CC(=O)[O-])CCN(CC(=O)[O-])CCN(CC(=O)[O-])CC2)c(I)c(N(C)C(=O)C(C)N2CCN(CC(=O)[O-])CCN(CC(=O)[O-])CCN(CC(=O)[O-])CC2)c1I)N1CCN(CC(=O)[O-])CCN(CC(=O)[O-])CCN(CC(=O)[O-])CC1.[Gd+3].[Gd+3].[Gd+3] (mixture of isomers) [Example 8, 2,4,6-Triiodo-5-(2-{10-[1,4,7-tris-(carboxymethyl)-1,4,7,10-tetraazacyclododecanyl]}propionyl, Gd-complex)methylaminoisophthalic acid-N,N-bis-(3,6-diaza-4,7-dioxo-8-methyloctane-1,5-diyl-{10-[1,4,7-tris-(carboxymethyl)-1,4,7,10-tetraazacyclododecanyl, Gd-complex]})amide] | 346 mosmol/l | >12.0 g(I + Gd)/ g(I + Gd)/kg | 0.00005 |
| CC(C(=O)NCCNC(=O)c1c(I)c(C(=O)NCCNC(=O)C(C)N2CCN(CC(=O)[O-])CCN(CC(=O)[O-])CCN(CC(=O)[O-])CC2)c(I)c(N(C)C(=O)C(C)N2CCN(CC(=O)[O-])CCN(CC(=O)[O-])CCN(CC(=O)[O-])CC2)c1I)N1CCN(CC(=O)[O-])CCN(CC(=O)[O-])CCN(CC(=O)[O-])CC1.[Gd+3].[Gd+3].[Gd+3] (stereo not drawn) [Example 1, 2,4,6-Triiodo-5-(2-{10-[1,4,7-tris-(carboxymethyl)-1,4,7,10-tetraazacyclododecanyl]}propionyl, Gd-complex)methylaminoisophthalic acid-N,N-bis-(3-aza-5-methyl-4-oxopentane-1,5-diyl-{10-[1,4,7-tris-(carboxymethyl)-1,4,7,10-tetraazacyclododecanyl,Gd-complex]})amide] | 358 mosmol/l | >12.0 g(I + Gd)/ g(I + Gd)/kg | 0.00005 |
| CN(C(=O)CN1CCN(CC(=O)[O-])CCN(CC(=O)[O-])CCN(CC(=O)[O-])CC1)c1c(I)c(C(=O)NCCNC(=O)CN2CCN(CC(=O)[O-])CCN(CC(=O)[O-])CCN(CC(=O)[O-])CC2)c(I)c(C(=O)NCCNC(=O)CN2CCN(CC(=O)[O-])CCN(CC(=O)[O-])CCN(CC(=O)[O-])CC2)c1I.[Gd+3].[Gd+3].[Gd+3] [Example 5, 2,4,6-Triiodo-5-({10-[1,4,7-tris-(carboxymethyl)-1,4,7,10-tetraazacyclododecanyl]}acetyl, Gd-complex)methylaminoisophthalic acid-N,N-bis-(3-aza-4-oxopentane-1,5-diyl-{10-[1,4,7-tris-(carboxymethyl)-1,4,7,10-tetraazacyclododecanyl, Gd-complex]})amide] | 371 mosmol/l | >12.0 g(I + Gd)/ g(I + Gd)/kg | 0.00006 |
| O=C([O-])CN1CCN(CC(=O)[O-])CCN(CC(=O)NCCNC(=O)c2c(I)c(NC(=O)CN3CCN(CC(=O)[O-])CCN(CC(=O)[O-])CCN(CC(=O)[O-])CC3)c(I)c(C(=O)NCCNC(=O)CN3CCN(CC(=O)[O-])CCN(CC(=O)[O-])CCN(CC(=O)[O-])CC3)c2I)CCN(CC(=O)[O-])CC1.[Gd+3].[Gd+3].[Gd+3] [Example 7, 2,4,6-Triiodo-5-({10-[1,4,7-tris-(carboxymethyl)-1,4,7,10-tetraazacyclododecanyl]}acetyl, Gd-complex)aminoisophthalic acid-N,N-bis-(3-aza-4-oxopentane-1,5-diyl-{10-[1,4,7-tris-(carboxymethyl)-1,4,7,10-tetraazacyclododecanyl, Gd-complex]})amide] | 334 mosmol/l | >12.0 g(I + Gd)/ g(I + Gd)/kg | 0.00005 |
